Among the data in US20230117470A1, “SUBSTITUTED PYRAZOLE COMPOUNDS AS TOLL RECEPTOR INHIBITORS” (BRISTOL-MYERS SQUIBB COMPANY, priority 2019, published 2023) are IC50 values, retold here.

Holding throughout (type): cell-based
For assay [1], the target named is T1, human TLR9 (Homo sapiens, UniProt Q9NR96).
T1 construct: host or cells: HEK-Blue cells
T1 sequence (Q9NR96 26-1032): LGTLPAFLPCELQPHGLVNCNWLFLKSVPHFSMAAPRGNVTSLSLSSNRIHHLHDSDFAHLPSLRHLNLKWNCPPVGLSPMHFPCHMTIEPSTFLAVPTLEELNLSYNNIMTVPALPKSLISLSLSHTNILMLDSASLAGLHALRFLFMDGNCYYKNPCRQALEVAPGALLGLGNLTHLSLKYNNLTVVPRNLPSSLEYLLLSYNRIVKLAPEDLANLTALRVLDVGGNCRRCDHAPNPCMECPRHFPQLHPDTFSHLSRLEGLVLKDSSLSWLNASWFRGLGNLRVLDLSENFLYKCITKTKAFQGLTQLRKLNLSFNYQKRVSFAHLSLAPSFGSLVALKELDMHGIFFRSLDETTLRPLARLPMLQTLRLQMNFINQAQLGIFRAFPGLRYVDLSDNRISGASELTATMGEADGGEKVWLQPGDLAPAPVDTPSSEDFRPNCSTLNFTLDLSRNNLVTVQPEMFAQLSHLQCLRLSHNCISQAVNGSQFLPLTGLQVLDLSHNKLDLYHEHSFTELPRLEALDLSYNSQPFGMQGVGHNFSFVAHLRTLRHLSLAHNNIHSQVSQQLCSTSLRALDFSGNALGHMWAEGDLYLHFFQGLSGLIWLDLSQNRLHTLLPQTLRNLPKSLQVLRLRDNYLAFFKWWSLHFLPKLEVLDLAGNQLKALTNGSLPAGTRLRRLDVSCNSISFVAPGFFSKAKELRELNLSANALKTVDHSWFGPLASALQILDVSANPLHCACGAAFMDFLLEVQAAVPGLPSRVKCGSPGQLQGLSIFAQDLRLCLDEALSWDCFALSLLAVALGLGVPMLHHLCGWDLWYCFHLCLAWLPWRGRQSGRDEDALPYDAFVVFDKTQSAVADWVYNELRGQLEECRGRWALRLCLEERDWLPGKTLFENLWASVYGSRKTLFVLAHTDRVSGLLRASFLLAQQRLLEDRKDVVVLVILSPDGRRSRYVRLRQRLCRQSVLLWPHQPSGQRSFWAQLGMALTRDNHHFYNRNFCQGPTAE
Briefly: TLR9 inhibition reporter assay (HEK-Blue cells, SEAP reporter, ODN2006 stimulation). Particulars: HEK-Blue cells overexpressing human TLR9, SEAP reporter, ODN2006 5 nM. The method, boiled down:
(§1)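 Cells were pre-treated 30 min at room temperature with compound (final 0.05 nM–50 μM), then stimulated with gardiquimod 7.5 μM (TLR7), R848 15.9 μM (TLR8) or ODN2006 5 nM (TLR9). SEAP was read after 22 h at 37° C; percent inhibition scaled between agonist+DMSO and known-inhibitor wells.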
Background: A reporter such as luciferase makes a cellular process visible.

Assay [2] addresses T2, human TLR7 (Homo sapiens, UniProt Q9NYK1).
T2 construct: host or cells: HEK-Blue cells
T2 sequence (Q9NYK1 27-1049): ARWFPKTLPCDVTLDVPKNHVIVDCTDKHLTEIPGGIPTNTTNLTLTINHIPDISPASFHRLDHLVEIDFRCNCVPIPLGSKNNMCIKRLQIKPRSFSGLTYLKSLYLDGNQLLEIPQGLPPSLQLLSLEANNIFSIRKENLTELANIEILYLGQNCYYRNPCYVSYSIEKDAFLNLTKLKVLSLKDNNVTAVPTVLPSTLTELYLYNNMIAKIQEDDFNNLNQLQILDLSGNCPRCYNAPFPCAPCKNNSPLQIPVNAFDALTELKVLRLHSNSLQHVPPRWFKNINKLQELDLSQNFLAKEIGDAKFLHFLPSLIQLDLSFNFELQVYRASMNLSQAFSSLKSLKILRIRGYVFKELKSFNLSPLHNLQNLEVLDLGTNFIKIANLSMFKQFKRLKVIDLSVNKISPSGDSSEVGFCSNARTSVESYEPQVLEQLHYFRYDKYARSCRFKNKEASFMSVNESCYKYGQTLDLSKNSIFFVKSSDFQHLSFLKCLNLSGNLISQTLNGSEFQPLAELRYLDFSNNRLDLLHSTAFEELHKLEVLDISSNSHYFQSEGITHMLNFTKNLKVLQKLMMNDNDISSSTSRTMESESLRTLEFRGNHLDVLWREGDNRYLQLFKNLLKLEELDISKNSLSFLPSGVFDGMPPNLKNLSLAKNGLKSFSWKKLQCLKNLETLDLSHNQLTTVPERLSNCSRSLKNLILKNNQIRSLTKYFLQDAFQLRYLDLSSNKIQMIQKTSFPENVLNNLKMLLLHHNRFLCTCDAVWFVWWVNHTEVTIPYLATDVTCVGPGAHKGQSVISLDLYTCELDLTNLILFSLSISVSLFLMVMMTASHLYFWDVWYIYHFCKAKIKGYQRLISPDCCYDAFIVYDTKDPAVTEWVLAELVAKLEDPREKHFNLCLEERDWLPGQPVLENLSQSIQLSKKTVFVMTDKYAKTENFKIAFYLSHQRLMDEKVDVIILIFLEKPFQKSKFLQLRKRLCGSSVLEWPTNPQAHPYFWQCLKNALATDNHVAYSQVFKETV
Briefly: TLR7 inhibition reporter assay (HEK-Blue cells, SEAP reporter, gardiquimod stimulation). Particulars: HEK-Blue cells overexpressing human TLR7, SEAP reporter, gardiquimod 7.5 μM. The method, boiled down: as §1

Assay [3] deals with T3, human TLR8 (Homo sapiens, UniProt Q9NR97).
T3 construct: host or cells: HEK-Blue cells
T3 sequence (Q9NR97 27-1041): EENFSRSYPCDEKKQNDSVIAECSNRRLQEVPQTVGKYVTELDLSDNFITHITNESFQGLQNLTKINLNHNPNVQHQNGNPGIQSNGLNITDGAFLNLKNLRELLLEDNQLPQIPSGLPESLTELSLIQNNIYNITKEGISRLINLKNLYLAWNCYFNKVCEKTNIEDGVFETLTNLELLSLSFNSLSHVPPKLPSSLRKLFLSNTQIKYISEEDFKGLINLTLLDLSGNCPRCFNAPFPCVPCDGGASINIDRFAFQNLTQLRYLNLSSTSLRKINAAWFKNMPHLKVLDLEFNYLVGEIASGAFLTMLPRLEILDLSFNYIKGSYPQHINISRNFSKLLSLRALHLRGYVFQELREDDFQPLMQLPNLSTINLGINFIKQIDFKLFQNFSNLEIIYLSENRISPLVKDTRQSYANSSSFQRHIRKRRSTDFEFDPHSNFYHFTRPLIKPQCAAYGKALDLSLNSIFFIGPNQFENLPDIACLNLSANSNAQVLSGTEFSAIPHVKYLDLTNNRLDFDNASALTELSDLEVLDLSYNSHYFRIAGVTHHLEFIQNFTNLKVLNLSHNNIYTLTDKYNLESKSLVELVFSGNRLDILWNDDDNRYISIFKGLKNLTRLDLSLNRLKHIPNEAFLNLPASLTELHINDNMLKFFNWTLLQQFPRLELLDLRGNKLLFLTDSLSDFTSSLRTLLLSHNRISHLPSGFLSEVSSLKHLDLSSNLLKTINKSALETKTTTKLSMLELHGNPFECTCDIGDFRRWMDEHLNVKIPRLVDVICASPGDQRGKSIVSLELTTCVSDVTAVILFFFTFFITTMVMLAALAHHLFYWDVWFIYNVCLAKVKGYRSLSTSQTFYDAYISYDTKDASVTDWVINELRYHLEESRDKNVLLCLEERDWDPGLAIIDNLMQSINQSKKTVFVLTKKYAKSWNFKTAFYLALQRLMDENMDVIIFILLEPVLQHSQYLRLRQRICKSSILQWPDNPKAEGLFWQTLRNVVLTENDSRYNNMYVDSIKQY
The assay can be described thus: TLR8 inhibition reporter assay (HEK-Blue cells, SEAP reporter, R848 stimulation). The conditions noted are these: HEK-Blue cells overexpressing human TLR8, SEAP reporter, R848 15.9 μM. The procedure, abridged:
as §1

Take `Cc1cc(-c2[nH]nc(C(=O)N3CC[C@@H](N(C)C)C3)c2C(C)C)cn2ncnc12` [Example 18]: the half-maximal inhibitory concentration (IC50) in assay [1] worked out at 3740 nM; in assay [2], 5.69 nM; in assay [3], 2.57 nM.

Turning to `Cc1cc(-c2[nH]nc(C(=O)N3CC4CNCC4C3)c2C(C)C)cn2ncnc12` (stereo not drawn) [Example 59], the figures for the IC50 in assay [1], in assay [2] and in assay [3] were > 50000 nM, 5.83 nM and 47.2 nM, respectively.

For the molecule `Cc1cc(-c2[nH]nc(-c3ncc(C4CCN(C(C)C)CC4)cn3)c2C(C)C)cn2ncnc12` [Example 370], the results for the IC50 in assay [1], in assay [2] and in assay [3] were 6440 nM, 12.4 nM and 1.38 nM, respectively.

For the molecule `COc1cc(-c2[nH]nc(-c3cnc(C4CCN(C5COC5)CC4)cn3)c2C(C)C)cn2ncnc12` [Example 385], the figures for the IC50 in assay [1], in assay [2] and in assay [3] were > 50000 nM, 58.8 nM and 31.4 nM, respectively.

With `Cc1cc(-c2[nH]nc(C(=O)N3CCC(N(C)C)CC3)c2C(C)C)cn2ncnc12` [Example 13], the IC50 was 3330 nM in assay [1], 5.04 nM in assay [2] and 2.03 nM in assay [3].

Turning to `COc1cc(-c2[nH]nc(-c3ccc(C4CCNCC4)cc3)c2C(C)C)cn2ncnc12` [compound 308], the figures for the IC50 in assay [1], in assay [2] and in assay [3] were 15800 nM, 0.18 nM and 0.09 nM, respectively.

For the molecule `Cc1cc(-c2[nH]nc(C(=O)NC3CCN(C)CC3)c2C(C)C)cn2ncnc12` [Example 8], the IC50 is 30900 nM in assay [1], 2.47 nM in assay [2] and 5.42 nM in assay [3].

For the molecule `CCc1c(C(=O)NC2CCN(C(C)C)CC2)n[nH]c1-c1cc(C)c2ncnn2c1` [compound 182], the 50% inhibitory concentration (IC50) is 13500 nM in assay [1], 1.74 nM in assay [2] and 0.76 nM in assay [3].

On to `Cc1cc(-c2[nH]nc(-c3ncc(C4CCNCC4)cn3)c2C(C)C)cn2ncnc12` [Example 341], for which the IC50 worked out at 16500 nM in assay [1], 7.86 nM in assay [2] and 9 nM in assay [3].

As to `CC(C)c1c(C(=O)NC2CCN(C(C)C)CC2)n[nH]c1-c1ccnc2[nH]ncc12` [Example 35], the IC50 in assay [1] amounted to 4350 nM; in assay [2], 2.77 nM; in assay [3], 0.79 nM.

As for `Cc1cc(-c2[nH]nc(C(=O)N3CCN(c4ccncc4)CC3)c2C(C)C)cn2ncnc12` [Example 14], the IC50 was determined as 3840 nM in assay [1], 1.92 nM in assay [2] and 0.94 nM in assay [3].

In the case of `COc1cc(-c2[nH]nc(-c3cnc(C4CCN(C5CCC5)CC4)cn3)c2C(C)C)cn2ncnc12` [Example 387], the IC50 was 11500 nM in assay [1], 25.2 nM in assay [2] and 43.9 nM in assay [3].

For `Cc1cc(-c2[nH]nc(C(=O)N(C)C3CCN(C)CC3)c2C(C)C)cn2ncnc12` [Example 6], the IC50 in assay [1] is 1100 nM; in assay [2], 2.05 nM; in assay [3] it was 20.9 nM.

Turning to `Cc1cc(-c2[nH]nc(C(=O)N3CC[C@H](N(C)C)C3)c2C(C)C)cn2ncnc12` [Example 22], the half-maximal inhibitory concentration (IC50) in assay [1] is 4850 nM; in assay [2], 1.23 nM; in assay [3] it was 0.9 nM.

On to `Cc1cc(-c2[nH]nc(-c3ncc4c(n3)CCN(C(C)C)C4)c2C(C)C)cn2ncnc12` [Example 250], for which the values for the IC50 in assay [1], in assay [2] and in assay [3] were 43300 nM, 46.8 nM and 43.6 nM, respectively.

Consider `CCN1CCC(c2cnc(-c3n[nH]c(-c4cc(OC)c5ncnn5c4)c3C(C)C)cn2)CC1` [Example 382], for which the IC50 in assay [1] was 9860 nM; in assay [2], 2.32 nM; in assay [3], 2.33 nM.

Take `COc1ncc(CN[C@H]2CC[C@@H](NC(=O)c3n[nH]c(-c4cc(C)c5ncnn5c4)c3C(C)C)CC2)cn1` [Example 96]: the IC50 in assay [1] turned out to be 7770 nM; in assay [2], 1.53 nM; in assay [3], 0.98 nM.

For `COCCN1CCc2cc(-c3n[nH]c(-c4cc(C)c5ncnn5c4)c3C(C)C)ccc2C1` [Example 263, 6-(4-isopropyl-5-(8-methyl-[1,2,4]triazolo[1,5-a]pyridin-6-yl)-1H-pyrazol-3-yl)-2-(2-methoxyethyl)-1,2,3,4-tetrahydroisoquinoline], the figures for the IC50 in assay [1], in assay [2] and in assay [3] were 18100 nM, 4.74 nM and 4.48 nM, respectively.

On to `COc1cc(-c2[nH]nc(-c3cnc(C4CCN(C)CC4)cn3)c2C(C)C)cn2ncnc12` [Example 381], for which the IC50 in assay [1] came out at 5880 nM; in assay [2] it was 11.1 nM; in assay [3] it was 9.06 nM.

For the molecule `CNC(=O)CN1CCC(NC(=O)c2n[nH]c(-c3cc(C)c4ncnn4c3)c2C(C)C)CC1` [compound 177], the IC50 in assay [1] was determined as 9790 nM; in assay [2], 3.23 nM; in assay [3], 5.63 nM.

As for `Cc1cc(-c2[nH]nc(-c3cc4n(n3)CCNC4)c2C(C)C)cn2ncnc12` [Example 217], the IC50 in assay [1] came to 5870 nM; in assay [2] it was 2.41 nM; in assay [3], 5.3 nM.

With `Cc1cc(-c2[nH]nc(-c3cnc(N(C)C)cn3)c2C(C)C)cn2ncnc12` [Example 236], the results for the IC50 in assay [1], in assay [2] and in assay [3] were 25400 nM, 1.36 nM and 18.7 nM, respectively.

Broadly, the IC50 is the concentration that gives 50% inhibition. Read a low IC50 as greater potency in that assay.
